From patent US20010007872A1, “METHOD OF TREATING ACUTE, CHRONIC AND/OR NEUROPATHIC PAIN” (priority 1998, published 2001)

Key:
[1] = target: α1-adrengergic receptor; assay: Displacement of specific binding of [3H]prazosin from rat forebrain membranes; settings: 0.2 nM [3H]prazosin, IC50 for displacement of specific binding
Procedure: (§1) Affinity for the NR2B subunit containing NMDA receptor is measured as the IC50 for displacement of specific binding of racemic [^3H]
Forebrains of adult male Sprague Dawley rats are homogenized in 20 volumes of ice cold 50 mM Tris/HCl buffer (pH 7.7). The homogenate is centrifuged at 50,000 X g for 10 min. at 4° C. The pellet is resuspended and centrifuged under identical conditions and the final pellet is resuspended in 80 volumes of 50 mM Tris/HCl (pH 8.0) at 4° C.
For binding assays, compounds under study are added at various concentrations to 500 μg membrane protein in 1 ml of 50 mM Tris/HCl buffer, followed by [^3H]prazosin (Amersham, specific activity 33 Ci/mmol, 0.2 nM final concentration). Following incubation for 30 min at 25° C. in a shaking water bath, samples are filtered onto Whatman GFB glass fiber filters using a MB48R Cell Harvester (Brandel Research and Development Laboratories, Gaithersburg Md.). Filters are washed three times for 10 s with ice cold Tris HCl buffer and the radioactivity trapped on the filter quantified by liquid scintillation spectroscopy. Nonspecific binding is determined in parallel incubations containing 100 nM prazosin. Specific binding is defined as total binding minus nonspecific binding.

[2] = target: T1, NR2B subunit containing NMDA receptor (Rattus norvegicus, UniProt P35439+Q00960); assay: Displacement of specific binding of racemic [3H](+)-(1S, 2S)-1-(4-hydroxy-phenyl)-2-(4-hydroxy-4-phenylpiperidino)-1-propanol ([3H]CP-101,606) from rat forebrain membranes; settings: for Ratio [3H]Prazosin/[3H](+)-(1S, 2S)-1-(4-hydroxy-phenyl)-2-(4-hydroxy-4-phenylpiperidino)-1-propanol: selectivity for NR2B NMDA receptor over α1 adrenergic receptor, ratio of the two IC50, greater than three is considered selective
T1 construct: from rat forebrain membranes; from tissue; host or cells: forebrain membranes of adult male CD rats
Procedure: This affinity is assessed in a radioligand binding assay as described below.
The binding of racemic [^3H] […] Forebrains of adult male CD rats are homogenized in 0.32M sucrose at 4° C. The crude nuclear pellet is removed by centrifugation at 1,000×g for 10 min., and the supernatant centrifuged at 17,000×g for 25 min. The resulting pellet is resuspended in 5 mM Tris acetate pH 7.4 at 4° C. for 10 min. to lyse cellular particles and again centrifuged at 17,000×g. The resulting pellet is washed twice in Tris acetate, resuspended at 10 mg protein/ml and stored at −20° C. until use.
For binding assays, membranes are thawed, homogenized, and diluted to 0.5 mg protein/ml with 50 mM Tris HCl, pH 7.4. Compounds under study are added at various concentrations followed by racemic [^3H] […] Filters are washed for 10 s with ice cold Tris HCl buffer and the radioactivity trapped on the filter quantified by liquid scintillation spectroscopy. […] Specific binding is defined as total binding minus nonspecific binding.
as §1

T1 sequence (Q00960 27-1482, other chains not shown): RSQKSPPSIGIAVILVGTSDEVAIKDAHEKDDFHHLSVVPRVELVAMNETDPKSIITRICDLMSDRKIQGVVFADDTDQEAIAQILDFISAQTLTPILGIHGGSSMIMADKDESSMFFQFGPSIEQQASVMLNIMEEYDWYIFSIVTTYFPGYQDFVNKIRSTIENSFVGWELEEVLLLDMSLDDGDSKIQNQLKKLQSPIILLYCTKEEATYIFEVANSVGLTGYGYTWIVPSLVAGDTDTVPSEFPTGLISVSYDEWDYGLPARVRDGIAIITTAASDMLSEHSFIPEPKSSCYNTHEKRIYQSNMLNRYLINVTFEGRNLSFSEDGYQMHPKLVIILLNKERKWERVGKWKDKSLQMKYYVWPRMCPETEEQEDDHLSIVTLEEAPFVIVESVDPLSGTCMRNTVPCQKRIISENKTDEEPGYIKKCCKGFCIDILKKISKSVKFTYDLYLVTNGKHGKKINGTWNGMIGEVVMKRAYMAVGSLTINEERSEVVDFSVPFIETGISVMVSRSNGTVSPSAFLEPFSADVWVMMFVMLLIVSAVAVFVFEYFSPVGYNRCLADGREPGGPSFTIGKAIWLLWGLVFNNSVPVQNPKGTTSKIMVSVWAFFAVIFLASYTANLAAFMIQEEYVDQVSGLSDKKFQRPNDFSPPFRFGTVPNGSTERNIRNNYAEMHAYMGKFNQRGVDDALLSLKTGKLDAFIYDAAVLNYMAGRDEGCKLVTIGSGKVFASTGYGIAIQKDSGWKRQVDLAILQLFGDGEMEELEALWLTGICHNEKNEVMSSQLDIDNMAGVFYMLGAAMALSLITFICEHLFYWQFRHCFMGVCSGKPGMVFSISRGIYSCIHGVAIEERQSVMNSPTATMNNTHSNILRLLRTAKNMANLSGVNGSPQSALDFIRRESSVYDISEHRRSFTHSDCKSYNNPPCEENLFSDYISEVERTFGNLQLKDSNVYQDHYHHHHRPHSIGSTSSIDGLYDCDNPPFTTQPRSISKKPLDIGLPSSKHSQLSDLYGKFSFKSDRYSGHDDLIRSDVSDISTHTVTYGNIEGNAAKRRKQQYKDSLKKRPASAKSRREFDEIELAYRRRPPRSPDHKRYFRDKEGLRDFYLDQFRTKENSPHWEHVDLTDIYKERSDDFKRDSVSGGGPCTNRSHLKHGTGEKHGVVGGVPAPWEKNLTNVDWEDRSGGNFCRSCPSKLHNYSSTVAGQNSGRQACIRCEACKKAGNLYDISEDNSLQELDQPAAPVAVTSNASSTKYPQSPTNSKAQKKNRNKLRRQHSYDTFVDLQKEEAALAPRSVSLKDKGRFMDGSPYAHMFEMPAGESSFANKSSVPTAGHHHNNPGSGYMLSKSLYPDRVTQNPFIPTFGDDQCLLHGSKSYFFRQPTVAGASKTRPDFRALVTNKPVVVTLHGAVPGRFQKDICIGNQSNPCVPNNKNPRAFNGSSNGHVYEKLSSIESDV

Structure (SMILES)	melting point [°C]	IC50 [1] [nM]	IC50 [2] [nM]	Ratio [3H]Prazosin/[3H](+)-(1S, 2S)-1-(4-hydroxy-phenyl)-2-(4-hydroxy-4-phenylpiperidino)-1-propanol [2]
C[C@@H]([C@@H](O)c1ccc(O)cc1)N1CCC(O)(c2ccccc2)CC1 [(1S,2S)-1-(4-hydroxyphenyl)-2-(4-hydroxy-4-phenylpiperidin-1-yl)-1-propanol]	–	19500	–	–
Oc1ccc2c(c1)OC[C@@H](N1CCC(O)(c3ccc(F)cc3)CC1)[C@H]2O [(3R,4S)-3-[4-(4-fluorophenyl)-4-hydroxy-piperidin-1-yl] -chroman-4,7-diol]	–	> 10000	18 ± 3	≧555
COc1cc([C@H](O)[C@H](C)N2CCC(O)(c3ccccc3)CC2)ccc1O [1S, 2S 1-(4-hydroxy-3-methoxyphenyl)-2-(4-hydroxy-4-phenyl-piperidin-1-yl)-propan-1-ol]	–	8100	94	86
Cc1cc([C@@H](OS(C)(=O)=O)[C@@H](C)N2CCC(O)(c3ccc(F)cc3)CC2)ccc1O (racemic) [(1R*, 2R*)-1-(4-hydroxy-3-methylphenyl)-2-(4-(4-fluorophenyl)-4-hydroxypiperidin-1-yl)-propan-1-ol-mesylate]	–	10000	–	714
Oc1ccc2c(c1)OCC(N1CCC(O)(c3ccc(F)cc3)CC1)[C@H]2O (stereo in doubt)	159 to 160	–	–	–
OC(CN1CCC(Cc2ccc(F)cc2)CC1)c1ccc(Cl)cc1 (stereo not shown) [Eliprodil, reference compound]	–	980 ± 220	450 ± 130	2.2
